From PubChem BioAssay (NCI)
“And” between values parts separate entries of the source, which are not always exact repeats. Equal values may be shown once.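 Briefly, cells in 96-well plates were exposed to five compound concentrations for 48 h, and endpoints were estimated by linear interpolation. Here, GI50 denotes the concentration required for 50% inhibition of growth. TGI is the concentration that stops growth completely.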

How the values were obtained:
Test in all cases: NCI tumour cell line growth inhibition, 48 h
[1] = system: SN12C renal
[2] = system: K-562 leukemia
[3] = system: MDA-MB-435
[4] = system: SNB-19 CNS
[5] = system: RPMI-8226 leukemia
[6] = system: HOP-62 NSCLC
[7] = system: T-47D breast
[8] = system: EKVX NSCLC
[9] = system: MOLT-4 leukemia
[10] = system: NCI/ADR-RES ovarian
[11] = system: HCC-2998 colon
[12] = system: NCI-H23 lung
[13] = system: A549 NSCLC
[14] = system: COLO 205 colon
[15] = system: NCI-H460 lung
[16] = system: UO-31 renal
[17] = system: M14 melanoma
[18] = system: SW-620 colon
[19] = system: IGROV1 ovarian
[20] = system: HT29 colon
[21] = system: 786-0 renal
[22] = system: A498 renal
[23] = system: OVCAR-5 ovarian
[24] = system: PC-3 prostate
[25] = system: DU-145 prostate
[26] = system: ACHN renal
[27] = system: MCF7 breast
[28] = system: SNB-75 CNS
[29] = system: NCI-H226 lung
[30] = system: LOX IMVI melanoma
[31] = system: HL-60(TB) leukemia
[32] = system: CCRF-CEM leukemia
[33] = system: KM12 colon
[34] = system: HCT-116 colon
[35] = system: BT-549 breast
[36] = system: SR leukemia
[37] = system: UACC-257 melanoma
[38] = system: TK-10 renal
[39] = system: MDA-MB-231 breast
[40] = system: OVCAR-3 ovarian
[41] = system: OVCAR-8 ovarian
[42] = system: SF-539 CNS
[43] = system: SF-268 CNS
[44] = system: SF-295 CNS
[45] = system: OVCAR-4 ovarian
[46] = system: SK-OV-3 ovarian
[47] = system: HS 578T breast
[48] = system: MALME-3M melanoma
[49] = system: RXF 393 renal
[50] = system: SK-MEL-2 melanoma
[51] = system: HOP-92 NSCLC
[52] = system: NCI-H522 lung
[53] = system: HCT-15 colon
[54] = system: U251 CNS
[55] = system: SK-MEL-28 melanoma
[56] = system: UACC-62 melanoma
[57] = system: CAKI-1 renal

CC(C)c1[nH]nc2c(NCc3ccc(-c4ccccn4)cc3)nc(SCCN)nc12
GI50 [1]: 23.8 nM
TGI [1]: 185 nM
GI50 [2]: 19.8 nM
TGI [2]: 10200 nM
GI50 [3]: 4.22 nM
TGI [3]: 1080 nM and 1070 nM
GI50 [4]: 17.3 nM and 14.2 nM
TGI [4]: 11800 nM
GI50 [5]: 15.1 nM and 16.7 nM
TGI [5]: 84.7 nM and 83.1 nM
GI50 [6]: 24.7 nM and 20.6 nM
TGI [6]: 604 nM and 187 nM
GI50 [7]: 18.2 nM
TGI [7]: 89 nM
GI50 [8]: 32.8 nM and 55.7 nM
TGI [8]: 1520 nM and 2620 nM
GI50 [9]: 5.05 nM
TGI [9]: 169 nM and 102 nM
GI50 [10]: 4870 nM and 3560 nM
TGI [10]: 21300 nM
GI50 [11]: 25 nM
TGI [11]: 1080 nM
GI50 [12]: 21.2 nM and 18.1 nM
TGI [12]: 797 nM and 95.1 nM
GI50 [13]: 30.6 nM and 15.9 nM
TGI [13]: 12200 nM
TGI [14]: 34.2 nM
GI50 [15]: 38.1 nM and 35.6 nM
TGI [15]: 2050 nM and 10000 nM
GI50 [16]: 186 nM and 402 nM
GI50 [17]: 15.5 nM and 18.1 nM
TGI [17]: 151 nM and 1160 nM
GI50 [18]: 12 nM
GI50 [19]: 21.5 nM and 23.1 nM
TGI [19]: 12400 nM
GI50 [20]: 5.03 nM
TGI [20]: 10100 nM
GI50 [21]: 143 nM and 327 nM
GI50 [22]: 30.6 nM and 30.2 nM
TGI [22]: 82.6 nM and 87.6 nM
GI50 [23]: 47.2 nM and 38.5 nM
TGI [23]: 12800 nM
GI50 [24]: 25.7 nM
TGI [24]: 4110 nM and 12300 nM
GI50 [25]: 38.9 nM and 41.6 nM
TGI [25]: 11800 nM
GI50 [26]: 273 nM and 286 nM
TGI [26]: 4700 nM
GI50 [27]: 4.01 nM
TGI [27]: 2280 nM and 10200 nM
GI50 [28]: 5.87 nM
TGI [28]: 33.1 nM and 44.8 nM
GI50 [29]: 40.4 nM and 27.9 nM
TGI [29]: 98.5 nM
GI50 [30]: 5.53 nM
TGI [30]: 2620 nM and 1650 nM
GI50 [31]: 4.69 nM
TGI [31]: 44.3 nM
GI50 [32]: 9.78 nM
TGI [32]: 15100 nM
GI50 [33]: 17.5 nM and 12.6 nM
TGI [33]: 10300 nM
GI50 [34]: 23.3 nM and 19.6 nM
TGI [34]: 10600 nM
GI50 [35]: 32.2 nM and 67 nM
TGI [35]: 168 nM and 642 nM
GI50 [36]: 12.6 nM
TGI [36]: 2030 nM
GI50 [37]: 41.4 nM and 23.5 nM
TGI [37]: 87.5 nM
GI50 [38]: 155 nM
TGI [38]: 10100 nM
GI50 [39]: 4.92 nM
TGI [39]: 205 nM and 212 nM
GI50 [40]: 18.9 nM and 16.2 nM
TGI [40]: 10100 nM
GI50 [41]: 38.7 nM and 24.3 nM
TGI [41]: 12900 nM
GI50 [42]: 31.4 nM and 27.2 nM
TGI [42]: 97.9 nM and 81.1 nM
GI50 [43]: 6.84 nM
TGI [43]: 7120 nM and 5240 nM
GI50 [44]: 39.1 nM and 42.5 nM
TGI [44]: 712 nM and 2030 nM
GI50 [45]: 5.85 nM
TGI [45]: 394 nM and 1410 nM
GI50 [46]: 43.3 nM and 27.6 nM
TGI [46]: 11400 nM
GI50 [47]: 15.1 nM
GI50 [48]: 16 nM
TGI [48]: 59.8 nM
GI50 [49]: 16.9 nM
TGI [49]: 53.2 nM
GI50 [50]: 30.6 nM
TGI [50]: 105 nM
GI50 [51]: 16.9 nM and 22.2 nM
GI50 [52]: 3.26 nM
TGI [52]: 147 nM
GI50 [53]: 672 nM and 683 nM
TGI [53]: 10900 nM
GI50 [54]: 28 nM and 20.5 nM
TGI [54]: 11500 nM
GI50 [55]: 19.7 nM and 12.4 nM
TGI [55]: 171 nM and 239 nM
GI50 [56]: 19.1 nM
TGI [56]: 48.6 nM
GI50 [57]: 2470 nM and 2840 nM
TGI [57]: 14800 nM
